Assay results from patent US20260365699A1, “Compound Production Method” (The University of Tokyo, priority 2022, published 2026).
*1 amine or outer side, *2 acyl side, *3 side chain or, on linkers, in order; H or OH if unused. Where a SMILES comes first, the peptide text is derived from it. Bridges are numbered along the chain shown (N, C = ends). X1 = C=C(N[*:2])c1nc(-c2nc(-c3nc(C(=O)OC)cs3)ccc2C(=O)[*:1])cs1

Legend:
[1] = target: T1, TLR10 (Homo sapiens, UniProt Q9BXR5); assay: Surface plasmon resonance (SPR) binding affinity to TLR10
T1 sequence (Q9BXR5 20-811): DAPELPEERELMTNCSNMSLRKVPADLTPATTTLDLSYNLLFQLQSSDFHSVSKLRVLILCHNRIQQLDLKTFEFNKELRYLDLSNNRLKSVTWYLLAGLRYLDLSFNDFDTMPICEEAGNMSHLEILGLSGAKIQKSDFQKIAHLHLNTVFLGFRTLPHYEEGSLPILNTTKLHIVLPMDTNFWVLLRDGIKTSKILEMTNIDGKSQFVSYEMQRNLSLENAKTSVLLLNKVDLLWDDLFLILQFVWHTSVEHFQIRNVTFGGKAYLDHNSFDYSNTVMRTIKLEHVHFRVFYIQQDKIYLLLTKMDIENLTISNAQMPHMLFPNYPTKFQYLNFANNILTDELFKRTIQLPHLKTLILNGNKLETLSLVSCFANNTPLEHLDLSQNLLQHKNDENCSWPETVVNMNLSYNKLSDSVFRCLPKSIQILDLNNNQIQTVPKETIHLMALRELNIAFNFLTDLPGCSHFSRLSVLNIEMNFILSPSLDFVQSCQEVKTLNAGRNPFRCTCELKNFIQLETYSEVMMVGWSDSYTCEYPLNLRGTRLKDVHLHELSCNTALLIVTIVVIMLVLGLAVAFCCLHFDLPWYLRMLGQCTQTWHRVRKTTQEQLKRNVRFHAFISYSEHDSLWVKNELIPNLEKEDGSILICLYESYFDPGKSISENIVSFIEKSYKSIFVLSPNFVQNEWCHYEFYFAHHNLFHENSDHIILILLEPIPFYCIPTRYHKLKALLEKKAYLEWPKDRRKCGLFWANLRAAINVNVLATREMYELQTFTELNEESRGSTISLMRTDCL
Experimental: Next, the binding affinity of each of the synthesized thiopeptides (14 types excluding IR1-ct and IR15-ct in FIG. 8) to the target IRAK4 and TLR10 was examined using surface plasmon resonance (SPR). […] Next, using an ADP-Glo-based kinase inhibition assay, the IC50 values of 4 types of thiopeptides for IRAK4 excluding IR1-ct and IR15-ct were evaluated.

[2] = Metabolic stability in human serum (LC/MS); type: in vitro ADME; settings: 37 °C
Experimental: The compounds were incubated with a human serum at 37 °C, and the amount of the residual test substance at various points in time was quantified by LC/MS with respect to an internal standard substance. […] Next, it was examined whether or not the half-lives of the compounds were affected by the reactivity of the Dha residue. The Dha residue may be conjugated with various serum thiols.
In addition, the metabolic stability of all of the 14 types of candidate thiopeptides was examined. The compound was incubated with the human serum at 37 °C, and the amount of the residual thiopeptide at various points in time was quantified by LC/MS with respect to the internal standard substance. The half-life of the thiopeptide for TLR10 was generally as long as 38.2 hours, and the thiopeptide was stable.

[3] = Stability / reactivity towards glutathione (GSH), LC/MS; type: physicochemical
[4] = target: T2, TNIK (Homo sapiens, UniProt Q9UKE5); assay: Surface plasmon resonance (SPR) binding affinity to TNIK; settings: saturated concentration of ATP (1 mM; 15-fold higher than KM)
Excerpt: Surface plasmon resonance (SPR) was used to evaluate the binding affinity of the thiopeptide synthesized in Example 2 to TNIK.

[5] = target: LOK (Homo sapiens, UniProt O94804); assay: Kinase selectivity profiling (LOK); type: biochemical; settings: concentration of 1 μM
Experimental: (§1) Next, a kinase selectivity profiling experiment was carried out using a panel of various human kinases.

[6] = test system: c-Myc; assay: c-Myc protein level in HCT116 cells (immunoblotting); type: cell-based, human; settings: 20 μM, 24 hours
Experimental: (§2) The sub-confluent HCT116 cells were treated with the indicated compounds for 24 hours and the cellular levels of TNIK, TNIK pSer764 (autophosphorylation product), c-Myc, and Axin2 were analyzed by an immunoblotting method (FIG. 7(b)) and RT-qPCR (FIG. 7(c)).

[7] = test system: TNIK mRNA; assay: TNIK mRNA level in HCT116 cells (RT-qPCR); type: cell-based, human
Experimental: as §2

[8] = test system: Axin2; assay: Axin2 protein level in HCT116 cells (immunoblotting); type: cell-based, human; settings: 20 μM, 24 hours
Experimental: as §2

[9] = test system: HEK293H cells; assay: Chloroalkane penetration assay (CAPA) in HEK293H cells; type: cell-based, human; settings: chloroalkane-labeled derivatives
Experimental: as §2
Next, it was confirmed whether or not the obtained compound could also access an intracellular target protein (TNIK is localized in the cytoplasm and the cell nucleus) in a human cell model. First, a chloroalkane penetration assay (CAPA) was performed on 4 types (TP1-ct, TP8-ct, TP14-ct, and TP15-ct) out of the 6 types of chloroalkane-labeled thiopeptide derivatives shown in FIG. 5 in order to measure an uptake degree into the cytoplasm (Peraro, L.; Deprey, K. L.; Moser, M. K.; Zou, Z.; Ball, H. L.; Levine, B.; and Kritzer, J. A. Cell Penetration Profiling Using the Chloroalkane Penetration Assay. J. Am. Chem. Soc. 2018, 140, 11360-11369).

[10] = target: T3, MST1 (Homo sapiens, UniProt Q13043); assay: Kinase selectivity profiling (MST1); type: biochemical; settings: concentration of 1 μM
T3 sequence (Q13043 1-487): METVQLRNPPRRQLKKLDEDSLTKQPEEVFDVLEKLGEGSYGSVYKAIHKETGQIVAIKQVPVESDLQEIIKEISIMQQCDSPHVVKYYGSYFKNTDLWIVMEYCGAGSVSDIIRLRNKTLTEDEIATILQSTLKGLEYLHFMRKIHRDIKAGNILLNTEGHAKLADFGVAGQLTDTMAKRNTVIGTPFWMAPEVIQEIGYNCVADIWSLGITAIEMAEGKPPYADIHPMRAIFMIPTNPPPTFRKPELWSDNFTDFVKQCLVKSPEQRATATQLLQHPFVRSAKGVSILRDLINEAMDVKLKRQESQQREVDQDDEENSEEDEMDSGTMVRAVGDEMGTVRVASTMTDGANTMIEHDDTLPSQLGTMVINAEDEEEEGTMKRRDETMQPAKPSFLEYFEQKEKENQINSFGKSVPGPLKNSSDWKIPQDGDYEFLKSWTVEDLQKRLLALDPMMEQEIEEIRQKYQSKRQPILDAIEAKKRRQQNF
Experimental: as §1

[11] = test system: AXIN2 mRNA; assay: AXIN2 mRNA transcription in HCT116 cells (RT-qPCR); type: cell-based, human
Experimental: as §2

[12] = target: T2, TNIK; assay: Kinetic analysis (Lineweaver-Burk plots) of TNIK inhibition; type: biochemical; settings: role: inhibitor
[13] = test system: TNIK pSer764; assay: Immunoblotting of TNIK pSer764 (TNIK autophosphorylation) in HCT116 cells; type: cell-based, human
Experimental: as §2
Nat. Commun. 2016, 7, 12586).

[14] = test system: MYC mRNA; assay: MYC mRNA transcription in HCT116 cells (RT-qPCR); type: cell-based, human
Experimental: as §2

[15] = test system: TNIK; assay: TNIK protein level in HCT116 cells (immunoblotting); type: cell-based, human
Experimental: as §2

T2 sequence (Q9UKE5 whole entry): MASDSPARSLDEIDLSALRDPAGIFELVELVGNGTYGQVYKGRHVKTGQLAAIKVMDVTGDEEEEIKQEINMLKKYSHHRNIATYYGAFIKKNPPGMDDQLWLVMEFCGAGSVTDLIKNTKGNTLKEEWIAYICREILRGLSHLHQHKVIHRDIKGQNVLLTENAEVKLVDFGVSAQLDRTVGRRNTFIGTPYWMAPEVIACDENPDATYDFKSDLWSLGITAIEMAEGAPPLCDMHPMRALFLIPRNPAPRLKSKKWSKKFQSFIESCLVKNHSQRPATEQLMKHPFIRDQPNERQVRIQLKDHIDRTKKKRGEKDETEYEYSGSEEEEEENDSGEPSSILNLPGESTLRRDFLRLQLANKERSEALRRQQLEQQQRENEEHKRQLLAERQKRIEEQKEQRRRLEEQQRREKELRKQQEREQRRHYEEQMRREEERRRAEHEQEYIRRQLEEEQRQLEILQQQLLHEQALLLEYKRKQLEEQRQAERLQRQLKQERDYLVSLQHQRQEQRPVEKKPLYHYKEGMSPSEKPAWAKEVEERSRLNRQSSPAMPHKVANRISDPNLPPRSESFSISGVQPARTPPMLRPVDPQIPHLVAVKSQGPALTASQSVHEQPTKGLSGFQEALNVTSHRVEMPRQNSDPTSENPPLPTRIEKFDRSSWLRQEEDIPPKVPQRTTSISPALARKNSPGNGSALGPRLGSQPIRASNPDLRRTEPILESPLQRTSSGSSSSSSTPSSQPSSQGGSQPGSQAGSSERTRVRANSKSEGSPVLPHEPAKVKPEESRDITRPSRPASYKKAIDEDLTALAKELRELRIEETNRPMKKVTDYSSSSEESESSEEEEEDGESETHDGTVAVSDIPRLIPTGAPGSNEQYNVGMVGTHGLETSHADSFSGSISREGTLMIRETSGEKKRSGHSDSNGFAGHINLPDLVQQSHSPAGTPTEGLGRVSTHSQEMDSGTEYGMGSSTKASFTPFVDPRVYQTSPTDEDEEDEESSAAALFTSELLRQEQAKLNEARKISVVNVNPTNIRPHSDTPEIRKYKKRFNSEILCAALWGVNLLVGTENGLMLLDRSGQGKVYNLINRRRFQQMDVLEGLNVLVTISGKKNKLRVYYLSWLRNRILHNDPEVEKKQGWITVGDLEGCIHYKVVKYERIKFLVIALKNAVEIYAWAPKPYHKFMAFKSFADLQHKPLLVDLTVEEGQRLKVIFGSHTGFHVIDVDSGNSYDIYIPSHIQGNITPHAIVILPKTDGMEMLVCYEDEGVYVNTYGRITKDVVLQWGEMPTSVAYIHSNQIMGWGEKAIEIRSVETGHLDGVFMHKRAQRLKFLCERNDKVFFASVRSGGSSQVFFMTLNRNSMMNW
Chain of LOK (O94804 whole entry): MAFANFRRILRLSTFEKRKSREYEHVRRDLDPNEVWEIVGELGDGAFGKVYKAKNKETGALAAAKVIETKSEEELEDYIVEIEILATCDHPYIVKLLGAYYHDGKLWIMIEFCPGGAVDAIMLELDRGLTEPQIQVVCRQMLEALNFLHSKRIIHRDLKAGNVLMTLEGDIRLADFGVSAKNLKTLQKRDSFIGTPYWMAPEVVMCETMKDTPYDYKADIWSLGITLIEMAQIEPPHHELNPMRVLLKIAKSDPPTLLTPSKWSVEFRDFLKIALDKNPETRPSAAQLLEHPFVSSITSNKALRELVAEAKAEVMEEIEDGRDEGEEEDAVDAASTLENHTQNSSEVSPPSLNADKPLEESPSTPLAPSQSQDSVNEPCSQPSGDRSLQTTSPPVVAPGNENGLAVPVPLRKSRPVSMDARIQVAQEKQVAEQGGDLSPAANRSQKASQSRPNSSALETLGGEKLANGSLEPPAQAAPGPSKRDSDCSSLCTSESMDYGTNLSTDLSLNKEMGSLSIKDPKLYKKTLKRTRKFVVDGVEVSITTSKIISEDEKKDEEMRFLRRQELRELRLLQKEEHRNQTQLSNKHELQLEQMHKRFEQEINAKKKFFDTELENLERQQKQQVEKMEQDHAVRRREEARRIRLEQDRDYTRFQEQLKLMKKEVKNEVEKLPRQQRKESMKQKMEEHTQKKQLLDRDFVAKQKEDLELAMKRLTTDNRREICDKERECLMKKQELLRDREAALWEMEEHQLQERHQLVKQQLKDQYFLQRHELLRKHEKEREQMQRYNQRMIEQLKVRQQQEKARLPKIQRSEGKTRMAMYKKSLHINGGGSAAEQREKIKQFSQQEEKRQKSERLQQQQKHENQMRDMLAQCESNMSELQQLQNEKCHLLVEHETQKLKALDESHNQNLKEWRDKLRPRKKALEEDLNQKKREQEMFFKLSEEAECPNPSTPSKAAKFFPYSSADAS

Kd [1] [nM] | stability in human serum, in words [2] | residual amount in the presence of GSH ([3]; 10 mM GSH, after 24 hours) [%] | reactivity with GSH, in words ([3]; increasing concentration of glutathione (GSH)) | inhibition of LOK [5] | cytoplasmic uptake (CAPA), in words [9] | inhibition of MST1 [10] | mode of TNIK inhibition [12] | Compound | binding to TNIK in the presence of ATP [4] | protein level of c-Myc [6] | overall expression of TNIK, mRNA level [7] | protein level of Axin2 [8] | transcription of AXIN2 mRNA [11] | level of TNIK pSer764 ([13]; 20 μM of TP15, 24 hours, immunoblotting) | TNIK autophosphorylation, in words (figure legend) ([13]; 24 hours) | transcription of MYC mRNA [14] | overall expression of TNIK, protein level [15]
306 | – | – | – | – | – | – | – | C=C1NC(=O)[C@H](Cc2c[nH]cn2)NC(=O)[C@H]([C@@H](C)CC)NC(=O)[C@H](C(C)C)NC(=O)[C@H](C(C)C)NC(=O)[C@H](CC(N)=O)NC(=O)[C@H](C(C)C)NC(=O)[C@H](CCCNC(=N)N)NC(=O)[C@H](CO)NC(=O)[C@H](CC(C)C)NC(=O)[C@H](CCC(=O)O)NC(=O)[C@H](CC(C)C)NC(=O)[C@H](CO)NC(=O)[C@H](Cc2c[nH]c3ccccc23)NC(=O)c2ccc(-c3nc(C(=O)OC)cs3)nc2-c2csc1n2 [TL7] (WSLELSRVNVVIH; linker N-C via X1) | – | – | – | – | – | – | – | – | –
– | short half-life | > 95 | stable | inhibited | efficient cytoplasmic translocation | inhibited | substrate competitive inhibitor | C=C1NC(=O)c2csc(n2)[C@H]([C@@H](C)O)NC(=O)[C@H](C)NC(=O)[C@H]([C@@H](C)CC)NC(=O)[C@H](CCCNC(=N)N)NC(=O)CNC(=O)[C@H](CCCNC(=N)N)NC(=O)[C@H]([C@@H](C)O)NC(=O)[C@H](CCCNC(=N)N)NC(=O)[C@H]([C@@H](C)CC)NC(=O)[C@H]([C@@H](C)O)NC(=O)[C@H](Cc2c[nH]c3ccccc23)NC(=O)c2ccc(-c3nc(C(=O)OC)cs3)nc2-c2csc1n2 [TP15] | bonded to TNIK in the presence of the saturated concentration of ATP | decreased | not TP15 | decreased | suppressed in a concentration-dependent manner | decreased | inhibition of TNIK autophosphorylation | suppressed in a concentration-dependent manner | not TP15
